≈ marks a conversion by molar mass, not a printed value.
Tests used:
[1] = Aqueous solubility at pH 7.4
Bile acid receptor = target: T1, Bile acid receptor (Homo sapiens, UniProt Q96RI1)
T1 sequence (Q96RI1 whole entry): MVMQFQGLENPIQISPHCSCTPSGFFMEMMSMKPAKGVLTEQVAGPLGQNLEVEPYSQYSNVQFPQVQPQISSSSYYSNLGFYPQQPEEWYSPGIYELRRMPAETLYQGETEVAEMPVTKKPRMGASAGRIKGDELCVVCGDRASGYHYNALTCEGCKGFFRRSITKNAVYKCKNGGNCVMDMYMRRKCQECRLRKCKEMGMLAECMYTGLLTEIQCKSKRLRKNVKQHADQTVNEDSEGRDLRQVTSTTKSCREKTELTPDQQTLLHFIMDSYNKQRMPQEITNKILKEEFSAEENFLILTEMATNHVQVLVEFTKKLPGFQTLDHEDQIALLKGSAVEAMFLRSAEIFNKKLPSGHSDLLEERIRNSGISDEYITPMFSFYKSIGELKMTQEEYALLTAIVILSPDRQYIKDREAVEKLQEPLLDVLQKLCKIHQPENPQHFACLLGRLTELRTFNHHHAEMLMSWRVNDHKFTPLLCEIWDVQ
Description: Agonist activity at gal4-tagged human FXR-ligand binding domain expressed in human HEK293 cells by luciferase reporter gene assay

| SMILES | solubility ([1]; buffer) | EC50 (Bile acid receptor) | solubility ([1]; aqueous) |
| --- | --- | --- | --- |
| CC(C)OC(=O)C1=CN(C(=O)c2ccc(F)c(F)c2)CC(C)(C)c2cc(C#N)[nH]c21 | Insoluble(BLD) | 6.3 nM |  |
| CC(C)OC(=O)C1=CN(C(=O)C2CCCCC2)CC(C)(C)c2cc(C#N)[nH]c21 | Insoluble(BLD) |  |  |
| CC(C)OC(=O)C1=CN(C(=O)c2ccc(C#N)cc2)CC(C)(C)c2cc(C#N)[nH]c21 | Insoluble(BLD) |  |  |
| CC(C)OC(=O)C1=CN(C(=O)c2cccc(C(F)(F)F)c2)CC(C)(C)c2cc(C#N)[nH]c21 | Insoluble(BLD) | 8.5 nM |  |
| CC(C)OC(=O)C1CN(C(=O)C2CCOCC2)CC(C)(C)c2cc(C#N)[nH]c21 (stereo not given) |  |  | > 100 µg/mL |
| CC(C)OC(=O)C1=CN(C(=O)c2ccc(F)cc2)CC(C)(C)c2cc(C#N)[nH]c21 | Insoluble(BLD) |  |  |
| CC(C)OC(=O)C1=CN(C(=O)c2cccs2)CC(C)(C)c2cc(C#N)[nH]c21 | Insoluble(BLD) | 16 nM |  |
| CC(C)OC(=O)C1=CN(C(=O)c2cccc(Cl)c2)CC(C)(C)c2cc(C#N)[nH]c21 | Insoluble(BLD) |  |  |
| CC(C)OC(=O)C1=CN(C(=O)c2cccc(F)c2)CC(C)(C)c2cc(C#N)[nH]c21 | Insoluble(BLD) |  |  |
| CC(C)OC(=O)C1CN(C(=O)C2CCCCC2)CC(C)(C)c2cc(C#N)[nH]c21 (stereo not given) |  |  | > 100 µg/mL |
| CC(C)OC(=O)C1=CN(C(=O)c2ccc(F)c(F)c2)CC(C)(C)c2c1[nH]c1ccccc21 [TUROFEXORATE ISOPROPYL] | Insoluble(BLD) |  |  |

The remaining lines, values ahead:

| solubility ([1]; buffer) | EC50 (Bile acid receptor) | solubility ([1]; aqueous) | SMILES |
| --- | --- | --- | --- |
|  |  | > 100 µg/mL | CC(C)OC(=O)C1CN(C(=O)c2ccc(F)cc2)CC(C)(C)c2cc(C#N)[nH]c21 (stereo not given) |
|  |  | 17 µg/mL (≈ 41.1 µM) | CC(C)OC(=O)C1CN(C(=O)c2cccc(Cl)c2)CC(C)(C)c2cc(C#N)[nH]c21 (stereo not given) |
|  |  | 31 µg/mL (≈ 74.6 µM) | CC(C)OC(=O)C1CN(C(=O)c2ccc(F)c(F)c2)CC(C)(C)c2cc(C#N)[nH]c21 (stereo not given) |
|  |  | 21 µg/mL (≈ 51.9 µM) | CC(C)OC(=O)C1CN(C(=O)c2ccc(C#N)cc2)CC(C)(C)c2cc(C#N)[nH]c21 (stereo not given) |
|  |  | > 100 µg/mL | CC(C)OC(=O)C1CN(C(=O)c2cccc(F)c2)CC(C)(C)c2cc(C#N)[nH]c21 (stereo not given) |
|  |  | 5 µg/mL (≈ 12.1 µM) | CC(C)OC(=O)C1CN(C(=O)c2ccc(Cl)cc2)CC(C)(C)c2cc(C#N)[nH]c21 (stereo not given) |

From ChEMBL document CHEMBL1155995, “Pyrrole[2,3-d]azepino compounds as agonists of the farnesoid X receptor (FXR)” (Bioorg Med Chem Lett, 2009)
